{"source": "patent US20200268728A1", "about": "“DRUG TARGETING CANCER STEM CELL” (Sumitomo Dainippon Pharma Co., Ltd., priority 2016, published 2020)", "assay_in_all_cases": "Sphere-forming ability of cultured cancer cell lines (Test Example 10)", "assay_type_in_all_cases": "cell-based", "key": {"[1]": {"system": "LS411N", "conditions": "Homo sapiens, LS-411N, 96 h; LS411N colon cancer cell line, 4 days", "description": "(§1) The colon cancer cell lines SW480, DLD1, HCT15, HT29, SW948, LS174T, LS411N, SW620, LoVo, HCT116, Colo205, and Hs698T, the pancreatic cancer cell lines MiaPaca2, HPAFII, Capan2, and Panc1, the head and neck cancer cell line FaDu, the breast cancer cell lines HCC1954 and T47D, the bladder cancer cell line SW780, the liver cancer cell line HepG2, the neuroblastoma cell lines U87MG and U251, the lung cancer cell lines H460, H1437, and A549, the prostate cancer cell lines DU145 and PC3, the soft tissue tumor cell line HT1080, the testicular cancer cell line NTERA2, and the ovarian cancer cell line SKOV3 was suspended in the sphere formation medium (DMEM-F12 medium of Test Example 3 was used), and seeded in a 384-well plate with Ultra-Low Attachment surface (Corning) in an amount of 5×10^3-10×10^3 cells/well. The compound of Example 24 was then added into each well to adjust the final concentration to 10-10000 nmol/L. The plate was cultured at 37° C. and 5% carbon dioxide in an incubator for 4 days. After the culture, CellTiterGlo (Promega) was added into all of the wells, and the plate was allowed to stand at room temperature for 10 minutes to measure the intensity of luminescence of each well. The concentrations of each test compound for 50% inhibition of cell proliferation to the cell lines (Sphere IC50 value; μmol/L) was calculated from the measured intensity of luminescence. When each gene mutation in Table is reported, the mutation is represented by “+” (gene mutation information is cited from the ATCC website (https://www.atcc.org/en/Products/Cells_and_Microorganisms/Cell_Lines/Cell_lines_by_genetic_mutation.aspx), Cancer Cell Line Encyclopedia (https://portals.broadinstitute.org/ccle_legacy/home), Proc. Natl. Acad. Sci. USA 94 (1997) 10330-10334)."}, "[2]": {"system": "DU 145", "conditions": "Homo sapiens, 96 h; DU 145 prostate cancer cell line, 4 days", "description": "as §1"}, "[3]": {"system": "HCC1954", "conditions": "Homo sapiens, 96 h; HCC1954 breast cancer cell line, 4 days", "description": "as §1"}, "[4]": {"system": "Panc-1", "conditions": "Homo sapiens, 96 h; Panc-1 pancreatic cancer cell line, 4 days", "description": "as §1"}, "[5]": {"system": "LS 174T", "conditions": "Homo sapiens, LS174T, 96 h; LS 174T colon cancer cell line, 4 days", "description": "as §1"}, "[6]": {"system": "U-251", "conditions": "Homo sapiens, 96 h; U-251 neuroblastoma cell line, 4 days", "description": "as §1"}, "[7]": {"system": "HT-29", "conditions": "Homo sapiens, 96 h; HT-29 colon cancer cell line, 4 days", "description": "as §1"}, "[8]": {"system": "SW948", "conditions": "Homo sapiens, 96 h; SW948 colon cancer cell line, 4 days", "description": "as §1"}, "[9]": {"system": "HCT 116", "conditions": "Homo sapiens, 96 h; HCT 116 colon cancer cell line, 4 days", "description": "as §1"}, "[10]": {"system": "PC-3", "conditions": "Homo sapiens, 96 h; PC-3 prostate cancer cell line, 4 days", "description": "as §1"}, "[11]": {"system": "U-87 MG", "conditions": "Homo sapiens, 96 h; U-87 MG glioblastoma cell line, 4 days", "description": "as §1"}, "[12]": {"system": "HPAF-II", "conditions": "Homo sapiens, 96 h; HPAF-II pancreatic cancer cell line, 4 days", "description": "as §1"}, "[13]": {"system": "SK-OV-3", "conditions": "Homo sapiens, 96 h; SK-OV-3 ovarian cancer cell line, 4 days", "description": "as §1"}, "[14]": {"system": "HCT-15", "conditions": "Homo sapiens, 96 h; HCT-15 colon cancer cell line, 4 days", "description": "as §1"}, "[15]": {"system": "COLO 205", "conditions": "Homo sapiens, 96 h; COLO 205 colon cancer cell line, 4 days", "description": "as §1"}, "[16]": {"system": "SW620", "conditions": "Homo sapiens, SW-620, 96 h; SW620 colon cancer cell line, 4 days", "description": "as §1"}, "[17]": {"system": "NCI-H460", "conditions": "Homo sapiens, 96 h; NCI-H460 lung cancer cell line, 4 days", "description": "as §1"}, "[18]": {"system": "SW 780", "conditions": "Homo sapiens, SW780, 96 h; SW 780 bladder cancer cell line, 4 days", "description": "as §1"}, "[19]": {"system": "Capan-2", "conditions": "Homo sapiens, 96 h; Capan-2 pancreatic cancer cell line, 4 days", "description": "as §1"}, "[20]": {"system": "LoVo", "conditions": "Homo sapiens, 96 h; LoVo colon cancer cell line, 4 days", "description": "as §1"}, "[21]": {"system": "NCI-H1437", "conditions": "Homo sapiens, 96 h; NCI-H1437 lung cancer cell line, 4 days", "description": "as §1"}, "[22]": {"system": "Hep G2", "conditions": "Homo sapiens, HepG2, 96 h; Hep G2 liver cancer cell line, 4 days", "description": "as §1"}, "[23]": {"system": "NTERA-2", "conditions": "NTERA2, 96 h; NTERA-2 testicular cancer cell line, 4 days", "description": "as §1"}, "[24]": {"system": "A549", "conditions": "Homo sapiens, 96 h; A549 lung cancer cell line, 4 days", "description": "as §1"}, "[25]": {"system": "DLD-1", "conditions": "Homo sapiens, 96 h; DLD-1 colon cancer cell line, 4 days", "description": "as §1"}, "[26]": {"system": "Hs 698.T", "conditions": "96 h; Hs 698.T colon cancer cell line, 4 days", "description": "as §1"}, "[27]": {"system": "T-47D", "conditions": "Homo sapiens, T47D, 96 h; T-47D breast cancer cell line, 4 days", "description": "as §1"}}, "data": [{"smiles": "O=C(Nc1cn(Cc2cc(F)c(F)c(F)c2)cn1)c1cnc(CO)c(C(F)F)c1", "note": "[Example 24, 5-(difluoromethyl)-6-(hydroxymethyl)-N-[1-(3,4,5-trifluorobenzyl)-1H-imidazol-4-yl]nicotinamide]", "values": [{"measurement": "IC50", "setting": "[1]", "result": 19, "unit": "nM"}, {"measurement": "IC50", "setting": "[2]", "result": "> 10000", "unit": "nM"}, {"measurement": "IC50", "setting": "[3]", "result": 23, "unit": "nM"}, {"measurement": "IC50", "setting": "[4]", "result": "> 10000", "unit": "nM"}, {"measurement": "IC50", "setting": "[5]", "result": 15, "unit": "nM"}, {"measurement": "IC50", "setting": "[6]", "result": "> 10000", "unit": "nM"}, {"measurement": "IC50", "setting": "[7]", "result": 9, "unit": "nM"}, {"measurement": "IC50", "setting": "[8]", "result": 9, "unit": "nM"}, {"measurement": "IC50", "setting": "[9]", "result": 91, "unit": "nM"}, {"measurement": "IC50", "setting": "[10]", "result": "> 10000", "unit": "nM"}, {"measurement": "IC50", "setting": "[11]", "result": 89, "unit": "nM"}, {"measurement": "IC50", "setting": "[12]", "result": 764, "unit": "nM"}, {"measurement": "IC50", "setting": "[13]", "result": "> 10000", "unit": "nM"}, {"measurement": "IC50", "setting": "[14]", "result": 8, "unit": "nM"}, {"measurement": "IC50", "setting": "[15]", "result": 142, "unit": "nM"}, {"measurement": "IC50", "setting": "[16]", "result": 27, "unit": "nM"}, {"measurement": "IC50", "setting": "[17]", "result": 883, "unit": "nM"}, {"measurement": "IC50", "setting": "[18]", "result": 56, "unit": "nM"}, {"measurement": "IC50", "setting": "[19]", "result": "> 10000", "unit": "nM"}, {"measurement": "IC50", "setting": "[20]", "result": 28, "unit": "nM"}, {"measurement": "IC50", "setting": "[21]", "result": 3880, "unit": "nM"}, {"measurement": "IC50", "setting": "[22]", "result": 72, "unit": "nM"}, {"measurement": "IC50", "setting": "[23]", "result": "> 10000", "unit": "nM"}, {"measurement": "IC50", "setting": "[24]", "result": "> 10000", "unit": "nM"}, {"measurement": "IC50", "setting": "[25]", "result": 7, "unit": "nM"}, {"measurement": "IC50", "setting": "[26]", "result": "> 10000", "unit": "nM"}, {"measurement": "IC50", "setting": "[27]", "result": 46, "unit": "nM"}]}]}
